# Experimental data reported in patent US8993626B2, “Methods of treatment using sterculic acid” (The United States of America, as represented by the …, priority 2010, dated 2015).
# Key:
# ARPE-19 cells [1] = assay: Fatty acids against 7KCh-mediated cell death (CCK8); format: cell-based; settings: for CONC. (μM): lowest concentration required to maintain full cell viability against 7KCh: 12 μM 7KCh for 24 hr, tested 0.1, 0.5, 1, 5 and 10 μM
# Method: FIGS. 12A-12C depict ARPE-19 cell viability in response to 12 μM 7KCh with or without 0.1-5 μM (A) sterculic acid and (B) stearic acid after 24 hr treatments. Error bars indicate the standard deviations. n=3-5. Two-tailed Student's t-test. (C) Representative images of changes in cell morphology in response to 12 μM 7KCh with or without 1 μM sterculic acid and stearic acid after 24 hr treatments.
# (§1) ARPE-19 cells were seeded in 24-well plates with 1×10^5 cells per well and allowed to recover for 16-24 hr. Once confluency reached approximately 90%, the effect of the fatty acids against 7KCh-mediated cell death was examined 24 hr after incubation in serum-free medium with 12 μM 7KCh. Fatty acids were tested at 0.1, 0.5, 1, 5 and 10 μM concentrations. The effects of the fatty acids against 7KCh-mediated inflammation and ER stress were examined by incubating cells in 1 μM fatty acids with either 8 μM 7KCh (24 hr for quantitative real-time PCR (qRT-PCR), 24 and 48 hr for immunoblot), or 6 μM 7KCh for 48 hr (for ELISA). Three individual experiments were performed for each treatment with quadruplicate measurements performed for each experiment in 24-well plates.
# The cell viability was determined by the dehydrogenase activity of the ARPE-19 cells using Cell Counting Kit-8 (CCK8, Dojindo, Gaithersburg, Md.) according to manufacturer's protocol.
# The lowest effective concentrations of fatty acids that offset the 7KCh-mediated cell death were determined. […] Table 3 lists the lowest concentrations of these fatty acids required to maintain full cell viability against 12 μM 7KCh treatment. All unsaturated fatty acids protected against 7KCh-induced cell death. […] DHA, α-linolenic, and linoleic acid prevented 7KCh-mediated cell death at 5 μM but the rest of unsaturated fatty acids and dihydrosterculic acid required 10 μM to be protective.
# ARPE-19 cells [2] = assay: qRT-PCR of inflammatory cytokines and ER stress markers, 7KCh-mediated inflammation; format: cell-based; settings: for effect on 7KCh-mediated mRNA induction (inflammatory response): 1 μM fatty acid + 8 μM 7KCh, FIG. 13; for effect on 7KCh-mediated mRNA induction (inflammatory response) / VEGF mRNA expression / IL-6 mRNA expression / GRP78 mRNA expression / CHOP mRNA expression: 24 hr; for VEGF mRNA expression: FIG. 13A; for IL-6 mRNA expression: FIG. 13B; for GRP78 mRNA expression: FIG. 13C; for CHOP mRNA expression: FIG. 13D
# Method: FIGS. 13A-13D depict mRNA expressions of (A) VEGF, (B) IL-6, (C) GRP78, and (D) CHOP in response to 8 μM 7KCh with or without 1 μM long-chain fatty acids. Error bars indicate the standard deviations. *p<0.05 comparing to 7KCh, n=3. Two-tailed Student's t-test.
# (§2) FIGS. 14A-14D depict mRNA expressions of (A) VEGF, (B) IL-1b, (C) IL-6, and (D) IL-8 in response to 8 μM 7KCh, 1 μM sterculic acid, 1 μM stearic acid, or the combinations of 7KCh with either sterculic acid or stearic acid. Error bars indicate the standard deviations. *p<0.05 comparing to 7KCh, n=4. Two-tailed Student's t-test.
# as §2, with “15A-15D” for “14A-14D”, “TNF-α,” for “VEGF,”, “TGF-β1,” for “IL-1b,”, “GRP78,” for “IL-6,”, “CHOP” for “IL-8”, “n=3-4.” for “n=4.”
# as §1
# (§3) The RNA was extracted using RNeasy Mini Kit (Qiagen, Valencia, Calif.). The reverse transcription was performed with reagents and kits from Invitrogen. Quantification of mRNA expression was performed using the Taqman gene expression assays and the following primers (VEGFa, Hs00173626_m1; IL-1β, Hs01555413_m1; IL-6, Hs00174131_m1; IL-8, Hs00174103_m1; IκBα, Hs00153283_m1; GRP78, Hs99999174_m1; CHOP, Hs01090850_m1; NOX2, Hs00166163_m1; NOX4, Hs01558199_m1; SCD, Hs00748952 s1; TNF-α, Hs00174128_m1; TGF-β1, Hs00998133_m1; GAPD, 4352934e). GAPD expression was used as an endogenous standard. All qRT-PCR experiments were measured in triplicates in an ABI 7500 Real-Time PCR Instrument (Applied Biosystems, Foster City, Calif.). The results of each treatment were normalized and presented in percentage relative to the vehicle-only control.
# ARPE-19 cells [3] = assay: qRT-PCR of cytokines in TNF-α treated cells; format: cell-based; settings: 24 hr
# Method: FIGS. 17A-17D depict the mRNA expressions of (A) IL-1β, (B) IL-8, (C) IκBα, and (D) GRP78 in response to 2 ng/ml TNF-α, 1 μM sterculic acid, 1 μM stearic acid, or the combinations of TNF-α with either sterculic acid or stearic acid. n=3. Error bars indicate the standard deviations.
# Tumor necrosis factor-alpha (TNF-α, Roche Diagnostics, Indianapolis, Ind.) was diluted in PBS to make 10 μg/ml stock solution and stored at −20° C. In order to test the anti-inflammation effect of fatty acids against TNF-α, ARPE-19 cells were treated with 2 ng/ml of TNF-α for 24 hr in serum-free medium with or without 1 μM fatty acids. The mRNA expressions of cytokines were then examined using qRT-PCR. Each treatment was performed three times with quadruplicate measurements in each experiment, in 24-well plates.
# as §3
# ARPE19 cells [4] = assay: 7-ketocholesterol-mediated cytotoxicity, 24-well CCK-8 viability and images; settings: 24 hr
# ARPE19 cells [5] = assay: CellTiter-Glo luminescent cell viability assay, 15 μM 7KCh-induced cytotoxicity; format: cell-based, human; settings: 1 μM fatty acid + 15 μM 7KCh, 24 hr, CellTiter-Glo
# Method: Error bar: standard deviation, n=4.
# CellTiter-Glo® Luminescent Cell Viability Assay is a homogeneous method of determining the number of viable cells in culture based on quantitation of the ATP (luminescent signal) present, an indicator of metabolically active cells.
# The contents in a plate were mixed for 2 min on an orbital shaker to induce cell lysis.
# 5) The plate was allowed to incubate at room temperature for 10 min to stabilize luminescent signal.
# ARPE19 cells [6] = assay: Phase-contrast images of cells after co-treatment with 15 μM 7KCh; format: cell-based, human; settings: 1 μM fatty acid + 15 μM 7KCh, 24 hr
# Excerpt: FIG. 8 depicts phase-contrast images of ARPE19 cells at 24 hr after sterculic acid co-treatment with 7KCh.
# ARPE19 cells [7] = assay: Cell Counting Kit-8 viability assay, 15 μM 7KCh-induced cytotoxicity; settings: 1 μM fatty acid + 15 μM 7KCh, 24 hr, CCK-8
# Method: 4×10^4 cells were seeded onto wells of a 96 well plate. […] Cell viability was determined as celluar dehydrogenase activity and expressed as the percentage of compound treated cells relative to that of untreated controls. error bar: standard deviation, n=4.
# The kit allows sensitive colorimetric assays for the determination of the number of viable cells in cell proliferation and cytotoxicity assays. The amount of the formazan dye generated by the activity of dehydrogenases in cells is directly proportional to the number of living cells.
# 1) Cells were cultivated in a 96 well cell plate (Costar#3599, Corning Incorp, Corning, N.Y.).
# 2) The cell suspension (40,000 cells/100 μL) were added to 100 μL culture media per well and stood for 15 min at room temperature and cultured at 37° C. in a humidified 5% CO2 atmosphere.
# 3) Approximately 19 hr after seeding, when the cells were fully confluent, the cells were treated with either DMSO or 1 μM fatty acid in 200 μL of serum free media and subsequently added with 15 μM 7KCh in HPBCD. Then, the plate was swirled for mixing. The cells were also treated with DMSO and HPBCD, which served as vehicle control. The final DMSO and HPBCD concentrations in the media were in the range of 0.1% and 0.0675%, respectively.
# Cell viability was expressed as the percentage of compound treated cells relative to that of untreated controls. Prior to measure cell viability, the cells were imaged live by Nikon TE 2000-U inverted fluorescent microscope.
# ARPE-19 cells [8] = assay: ELISA of secreted VEGF, IL-6, IL-8 in conditioned medium; format: cell-based; settings: 1 μM + 6 μM 7KCh, 48 hr
# Method: (§4) FIGS. 16A-16E depict the secreted protein levels of (A) VEGF, (B) IL-6, and (C) IL-8 were measure by ELISA 48 hr after treatment with 6 μM 7KCh, 1 μM sterculic acid, 1 μM stearic acid, or the combinations of 7KCh with either sterculic acid or stearic acid. Error bars indicate the standard deviations. *p<0.05 comparing to 7KCh, n=3. Two-tailed Student's t-test. The expressions of GRP78 and CHOP were shown by immunoblots (D) 24 hr or (E) 48 hr after treatment with 8 μM 7KCh, 1 μM sterculic acid, 1 μM stearic acid, or the combinations of 7KCh with either sterculic acid or stearic acid.
# as §1
# The levels of secreted VEGF, IL-6, IL-8, and TNF-α in conditioned medium of ARPE-19 cell cultures were measured 48 hr after treatments of 6 μM 7KCh and 1 μM fatty acids using the Quantkine ELISA kits from R&D systems (Minneapolis, Minn.). The protein levels were measured in triplicates. The ELISA results were quantified using an Envision multilable plate reader (PerkinElmer, Covina, Calif.) and presented in percentage relative to the vehicle-only control.
# ARPE-19 cells [9] = assay: Immunoblots of CHOP and GRP78; format: cell-based; settings: 1 μM + 8 μM 7KCh, 24 hr
# Method: as §4, §1
# Lysis of ARPE-19 cells was performed using MPER buffer solution (Thermo Fisher Scientific) containing Complete Protease Inhibitor Cocktail (Roche Diagnostics). A total of 10 μg protein samples of the cell lysate were separated by SDS-PAGE on 10% Bis-Tris gels (Invitrogen). The gels were blotted on to nitrocellulose membranes (Invitrogen). The proteins were probed with primary antibodies for CHOP (1:1000 dilution), GRP78 (1:1000), or GAPDH (1:2000) at 4° C. overnight. The membranes were then further incubated with anti-rabbit IgG, HRP-linked antibodies (1:2000 dilution) at room temperature for 1 hr. […]
# [10] = 8 μM 7KCh alone or with 1 μM fatty acid
compound,measurement,setting,value
CCCCC/C=C\C/C=C\CCCCCCCC(=O)O [linoleic acid],CONC. (μM): lowest concentration required to maintain full cell viability against 7KCh,ARPE-19 cells [1],5 µM
same,effect on 7KCh-mediated mRNA induction (inflammatory response),ARPE-19 cells [2],either ineffective or enhanced
CC/C=C\C/C=C\C/C=C\C/C=C\C/C=C\C/C=C\CCC(=O)O [docosahexaenoic acid],CONC. (μM): lowest concentration required to maintain full cell viability against 7KCh,ARPE-19 cells [1],5 µM
"CCCCC/C=C\C/C=C\C/C=C\C/C=C\CCCC(=O)O [arachidonic acid, Arachidonic acid]",CONC. (μM): lowest concentration required to maintain full cell viability against 7KCh,ARPE-19 cells [1],10 µM
same,effect on 7KCh-mediated mRNA induction (inflammatory response),ARPE-19 cells [2],either ineffective or enhanced
CC/C=C\C/C=C\C/C=C\CCCCCCCC(=O)O [α-linolenic acid],CONC. (μM): lowest concentration required to maintain full cell viability against 7KCh,ARPE-19 cells [1],5 µM
same,VEGF mRNA expression,ARPE-19 cells [2]; [10],essentially ineffective
same,IL-6 mRNA expression,ARPE-19 cells [2]; [10],somewhat effective
same,GRP78 mRNA expression,ARPE-19 cells [2]; [10],somewhat effective
same,CHOP mRNA expression,ARPE-19 cells [2]; [10],somewhat effective
TNF-α,induction of GRP78 mRNA expression,"ARPE-19 cells [3]; 2 ng/ml TNF-α alone or with 1 μM fatty acid, FIG. 17D",2.5 fold
same,induction of IL-1β mRNA expression,ARPE-19 cells [3]; 2 ng/ml TNF-α,9 fold
same,induction of IL-8 mRNA expression,ARPE-19 cells [3]; 2 ng/ml TNF-α,8 fold
same,induction of IκBα mRNA expression,ARPE-19 cells [3]; 2 ng/ml TNF-α,3 fold
"CCCCCCCC[C@@H]1C[C@@H]1CCCCCCCC(=O)O [dihydrosterculic acid, Dihydrosterculic acid]",CONC. (μM): lowest concentration required to maintain full cell viability against 7KCh,ARPE-19 cells [1],10 µM
same,VEGF mRNA expression,ARPE-19 cells [2]; [10],essentially ineffective
same,IL-6 mRNA expression,ARPE-19 cells [2]; [10],somewhat effective
same,GRP78 mRNA expression,ARPE-19 cells [2]; [10],somewhat effective
same,CHOP mRNA expression,ARPE-19 cells [2]; [10],somewhat effective
same,protection of cell confluency and morphology (images),ARPE19 cells [4]; 0.5 μM co-treatment with 12 μM 7KCh,no effect
same,protection of cell confluency and morphology (images),ARPE19 cells [4]; 1 μM co-treatment with 12 μM 7KCh,slight effect
same,protection of cell confluency and morphology (images),"ARPE19 cells [4]; 1 μM co-treatment with 12 μM 7KCh, listed as Dihydrosterculic acid",do not have such protection effect
same,increase of cell viability compared to 7KCh alone treatment,ARPE19 cells [5],20%
same,cell morphological changes compared to 7KCh alone,ARPE19 cells [6],more cells compared to 7KCh alone
same,increase of cell viability compared to 7KCh alone treatment,ARPE19 cells [7],20%
CCCCCCCCCCCCCCCCCC(=O)O [stearic acid],"effect on secreted VEGF, IL-6, IL-8 protein levels",ARPE-19 cells [8],no measurable effect
same,morphological effects on the cells (images),"ARPE-19 cells [1]; 1 μM + 12 μM 7KCh, 24 hr, FIG. 12C",no effect
same,protective effect against 7KCh-mediated cell death,"ARPE-19 cells [1]; 12 μM 7KCh, 24 hr, 0.1-10 μM fatty acid",did not demonstrate any protective effect
same,antagonist effect to the cytokine inductions by TNF-α,ARPE-19 cells [3]; 1 μM fatty acid + 2 ng/ml TNF-α,seemed to enhance
same,antagonistic effect to 7KCh-mediated mRNA induction,"ARPE-19 cells [2]; 1 μM + 8 μM 7KCh, FIGS. 14, 15",did not show any antagonistic effect
same,effect on 7KCh-mediated mRNA induction (inflammatory response),ARPE-19 cells [2],either ineffective or enhanced
same,effect of fatty acid alone on the mRNA expression of the cytokines,"ARPE-19 cells [2]; 1 μM fatty acid alone, no 7KCh, FIGS. 14, 15",no effect
same,induction of VEGF mRNA,"ARPE-19 cells [2]; 8 μM 7KCh alone or with 1 μM fatty acid, FIG. 14A",8.8 fold
same,induction of IL-6 mRNA,"ARPE-19 cells [2]; 8 μM 7KCh alone or with 1 μM fatty acid, FIG. 14C",29 fold
same,effect on 7KCh-induced CHOP and GRP78 protein expression,ARPE-19 cells [9],no effect
